The structures appear in SMILES notation. “And” between values parts separate entries of the source, which are not always exact repeats. Equal values may be shown once. Inconclusive results and toxic doses are left out.

This assay has as its system P388 leukemia ip, CD2F1 mice, survival T/C. In words: NCI In Vivo Anticancer Drug Screen. Data for tumor model P388 Leukemia (intraperitoneal) in CD2F1 (CDF1) mice. As to conditions: endpoint: median survival time, higher = longer survival. An outline of the steps:
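Mice carrying the transplanted tumor received test compound or vehicle. Survival was recorded in each group, and the value is the treated-group measurement divided by that of the vehicle-treated control group.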

[1] abbreviates: dose: 25.0 mg/kg/injection, schedule: Q01DX009 (ip), vehicle: Klucel (hydroxypropylcellulose) (HPC).
Setting [2] is: dose: 25.0 mg/kg/injection, schedule: Q01DX009 (ip), vehicle: saline with Tween-80.
The mark [3] stands for this setting: dose: 50.0 mg/kg/injection, schedule: Q01DX009 (ip), vehicle: saline with Tween-80.
Setting [4] is: dose: 100.0 mg/kg/injection, schedule: Q01DX009 (ip), vehicle: saline with Tween-80.
Where [5] appears, read: dose: 200.0 mg/kg/injection, schedule: Q01DX009 (ip), vehicle: saline with Tween-80.
Setting [6] is: dose: 400.0 mg/kg/injection, schedule: Q01DX009 (ip), vehicle: saline with Tween-80.
Setting [7] is: dose: 50.0 mg/kg/injection, schedule: Q01DX009 (ip), vehicle: Klucel (hydroxypropylcellulose) (HPC).
Setting [8] is: dose: 50.0 mg/kg/injection, schedule: Q01DX005 (ip), vehicle: Klucel (hydroxypropylcellulose) (HPC).
Setting [9] is: dose: 100.0 mg/kg/injection, schedule: Q01DX005 (ip), vehicle: Klucel (hydroxypropylcellulose) (HPC).
[10] abbreviates: dose: 200.0 mg/kg/injection, schedule: Q01DX005 (ip), vehicle: Klucel (hydroxypropylcellulose) (HPC).

For the molecule `O=C1CN=C(c2ccc[nH]2)c2cc(Cl)ccc2N1`, the T/C runs as follows: under setting [1], 120 % of control; under setting [2], 109 % of control; (dose: 50.0 mg/kg/injection, schedule: Q01DX001 (ip), vehicle: saline) 109 % of control; under setting [3], 100 % of control; (dose: 100.0 mg/kg/injection, schedule: Q01DX001 (ip), vehicle: saline) 109 % of control; under setting [4], 104 % of control. The T/C reads like this: (dose: 200.0 mg/kg/injection, schedule: Q01DX001 (ip), vehicle: saline) 104 % of control; under setting [5], 118 % of control; (dose: 400.0 mg/kg/injection, schedule: Q01DX001 (ip), vehicle: saline) 100 % of control; under setting [6], 118 % of control.
Turning to `CNC(=O)c1ccccc1`, the T/C runs as follows: under setting [2], 98 % of control; under setting [3], 100 % of control; under setting [4], 100 % of control; under setting [5], 100 % of control.
For `CCOC(=O)/C(=C/Nc1ccc(OCc2ccccc2)cc1)NC(=O)c1ccccc1`, the T/C under setting [3] is 87 % of control; the T/C (dose: 50.0 mg/kg/injection, schedule: Q01DX009 (ip), vehicle: saline) was 86 % of control; the T/C under setting [4] was 86 % of control; the T/C (dose: 100.0 mg/kg/injection, schedule: Q01DX009 (ip), vehicle: saline) is 86 % of control; the T/C under setting [5] was 87 % of control; the T/C (dose: 200.0 mg/kg/injection, schedule: Q01DX009 (ip), vehicle: saline) was 88 % of control. Also, the T/C under setting [6] was 97 % of control and the T/C (dose: 400.0 mg/kg/injection, schedule: Q01DX009 (ip), vehicle: saline) was 97 % of control.
With `CCOC(=O)C1=CC(C)(C)OC1=O`, the T/C was 99 % of control and 106 % of control (dose: 60.0 mg/kg/injection, schedule: Q01DX005 (ip), vehicle: saline with Tween-80); 110 % of control and 118 % of control (dose: 120.0 mg/kg/injection, schedule: Q01DX005 (ip), vehicle: saline with Tween-80); 101 % of control and 124 % of control (dose: 240.0 mg/kg/injection, schedule: Q01DX005 (ip), vehicle: saline with Tween-80).
Turning to `CCN(CC)CC(C)(C)C(=O)/C=C/c1ccc(Cl)cc1`, the T/C reads like this: (dose: 60.0 mg/kg/injection, schedule: Q01DX005 (ip), vehicle: saline) 110 % of control; (dose: 120.0 mg/kg/injection, schedule: Q01DX005 (ip), vehicle: saline) 116 % of control.
In the case of `CN1C(=O)c2ccccc2CC12c1ccccc1C(=O)N2C` (stereo not drawn), the T/C was 94 % of control (dose: 12.5 mg/kg/injection, schedule: Q01DX005 (ip), vehicle: saline with Tween-80); 90 % of control (dose: 25.0 mg/kg/injection, schedule: Q01DX005 (ip), vehicle: saline with Tween-80); 108 % of control (dose: 50.0 mg/kg/injection, schedule: Q01DX005 (ip), vehicle: saline with Tween-80).
On to `CCOC(=O)NC(Cc1cc(OC)c(OC)cc1Br)c1ccc(OC)c(OC)c1OC` (stereo not drawn), for which the T/C runs as follows: (dose: 100.0 mg/kg/injection, schedule: Q01DX001 (ip), vehicle: saline with Tween-80) 91 % of control; (dose: 200.0 mg/kg/injection, schedule: Q01DX001 (ip), vehicle: saline with Tween-80) 94 % of control; (dose: 400.0 mg/kg/injection, schedule: Q01DX001 (ip), vehicle: saline with Tween-80) 91 % of control.
Consider `O=[n+]1c2c(n([O-])c3ccccc31)-c1cccc3cccc-2c13`, for which the T/C was 100 % of control (dose: 12.5 mg/kg/injection, schedule: Q01DX010 (ip), vehicle: saline); 100 % of control (dose: 25.0 mg/kg/injection, schedule: Q01DX010 (ip), vehicle: saline); 100 % of control (dose: 50.0 mg/kg/injection, schedule: Q01DX010 (ip), vehicle: saline); 100 % of control (dose: 100.0 mg/kg/injection, schedule: Q01DX010 (ip), vehicle: saline).
Consider `CCCCCCC(O)C/C=C\CCCCCCCC(=O)O` (stereo not drawn), for which the T/C runs as follows: under setting [7], 107 % of control; (dose: 100.0 mg/kg/injection, schedule: Q01DX009 (ip), vehicle: Klucel (hydroxypropylcellulose) (HPC)) 107 % of control; (dose: 200.0 mg/kg/injection, schedule: Q01DX009 (ip), vehicle: Klucel (hydroxypropylcellulose) (HPC)) 102 % of control; (dose: 400.0 mg/kg/injection, schedule: Q01DX009 (ip), vehicle: Klucel (hydroxypropylcellulose) (HPC)) 95 % of control.
`Nc1cc(Nc2cccc(Cl)c2)nc(N)n1`: the T/C is, setting by setting: (dose: 50.0 mg/kg/injection, schedule: Q04DX003 (ip), vehicle: saline with Tween-80) 87 % of control; (dose: 100.0 mg/kg/injection, schedule: Q04DX003 (ip), vehicle: saline with Tween-80) 91 % of control.
For the molecule `COc1ccc(C(N)=O)cc1N=NN(C)C`, the T/C reads like this: (dose: 3.12 mg/kg/injection, schedule: Q01DX009 (ip), vehicle: Klucel (hydroxypropylcellulose) (HPC)) 103 % of control; (dose: 3.13 mg/kg/injection, schedule: Q01DX009 (ip), vehicle: Klucel (hydroxypropylcellulose) (HPC)) 103 % of control; (dose: 6.25 mg/kg/injection, schedule: Q01DX009 (ip), vehicle: Klucel (hydroxypropylcellulose) (HPC)) 98 % of control; (dose: 12.5 mg/kg/injection, schedule: Q01DX009 (ip), vehicle: Klucel (hydroxypropylcellulose) (HPC)) 107 % of control and 114 % of control; under setting [1], 121 % of control and 123 % of control; under setting [7], 118 % of control and 94 % of control.
On to `NC(=S)N/N=C\c1nccc2ccc(N)cc12`, for which, under setting [3], the T/C is 94 % of control.
As to `CCN(CC)CCOC(=O)C(c1ccccc1)C1(O)CCCCC1` (stereo not drawn), the T/C is 100 % of control (dose: 50.0 mg/kg/injection, schedule: Q01DX005 (ip), vehicle: saline) and 107 % of control (dose: 100.0 mg/kg/injection, schedule: Q01DX005 (ip), vehicle: saline).
With `C/C(=C\C(=O)c1cccc(F)c1)N1CCN(c2ccc(F)cc2)CC1`, the T/C is, setting by setting: under setting [8], 100 % of control; under setting [9], 96 % of control; under setting [10], 100 % of control.
With `C=CCOc1cc2c(cc1C(C)c1ccc(OC)cc1)OCO2` (stereo not drawn), the T/C (dose: 25.0 mg/kg/injection, schedule: Q01DX005 (ip), vehicle: Klucel (hydroxypropylcellulose) (HPC)) was 104 % of control and 116 % of control; the T/C (dose: 100.0 mg/kg/injection, schedule: Q01DX005 (ip), vehicle: saline with Tween-80) is 100 % of control and 109 % of control; the T/C (dose: 200.0 mg/kg/injection, schedule: Q01DX005 (ip), vehicle: Klucel + Tween-80) was 202 % of control; the T/C (dose: 200.0 mg/kg/injection, schedule: Q01DX005 (ip), vehicle: saline with Tween-80) was 106 % of control and 112 % of control; the T/C (dose: 500.0 mg/kg/injection, schedule: Q01DX001 (ip), vehicle: saline with Tween-80) is 96 % of control; the T/C (dose: 800.0 mg/kg/injection, schedule: Q01DX005 (ip), vehicle: saline with Tween-80) was 184 % of control. Moreover, the T/C (dose: 1000.0 mg/kg/injection, schedule: Q01DX001 (ip), vehicle: saline with Tween-80) was 122 % of control.
As to `O=C1CCCC2=C1CC1=C(CCCC1=O)N2`, the T/C under setting [8] is 94 % of control, the T/C under setting [9] was 96 % of control and the T/C under setting [10] is 90 % of control.
In the case of `CSc1sc(C#N)c2nc3c(nc12)-c1cccc2cccc-3c12`, the T/C reads like this: (dose: 50.0 mg/kg/injection, schedule: Q04DX002 (ip), vehicle: saline with Tween-80) 88 % of control; (dose: 100.0 mg/kg/injection, schedule: Q04DX002 (ip), vehicle: saline with Tween-80) 88 % of control; (dose: 200.0 mg/kg/injection, schedule: Q04DX002 (ip), vehicle: saline with Tween-80) 91 % of control.

These data come from PubChem BioAssay AID330 (DTP/NCI, 2004).
